From patent US20260184663A1, “INDENE COMPOUNDS, PHARMACEUTICAL COMPOSITIONS THEREOF, AND THEIR THERAPEUTIC APPLICATIONS” (NucMito Pharmaceuticals co. Ltd., priority 2022, published 2026) come the findings set out here.

Structures are written as SMILES.

Format in all cases: cell-based
In assay [1] the test system is MDA-MB-231 (breast cancer). The assay can be described thus: Antiproliferative activity (CCK-8 cell viability), MDA-MB-231. The note with it: Homo sapiens, 72 h, read-out: Antiproliferative activity in cancerous cells, MDA-MB-231 (inhibition of cell growth); for inhibition at 3.3 µM: Compound concentration: 3.3 μM; for inhibition at 10 µM: Compound concentration: 10 μM. The essentials: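 MDA-MB-231 breast cancer cells, grown in DMEM with 10% FBS, were plated in 96-well plates at 2,000-5,000 cells/well. Once attached, they were exposed to compound and incubated at 37° C. for 72 h. Viability was then measured with CCK-8 (10 μL per well, 4 h at 37° C.) by absorbance at 450 nm, relative to DMSO vehicle wells.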

The subject of assay [2] is HepG2 (liver cancer). The assay can be described thus: Antiproliferative activity (CCK-8 cell viability), HepG2. Particulars: Homo sapiens, 72 h, read-out: Antiproliferative activity in cancerous cells, HepG2 (inhibition of cell growth); for inhibition at 3.3 µM: Compound concentration: 3.3 μM; for inhibition at 10 µM: Compound concentration: 10 μM. Put shortly:
(§1)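 Cells grown in DMEM (HepG2, SW480), MEM (HeLa) or F-12K (A549), each with 10% FBS, then exposed to compound at 3.3, 10 or 30 μM for 72 h at 37 °C. CCK-8 absorbance at 450 nm; viability expressed as percent of DMSO-treated cells, graded as growth inhibition bands.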

In assay [3] the test system is SW480 (colon cancer). Kind of assay: Antiproliferative activity (CCK-8 cell viability), SW480. The note with it: Homo sapiens, 72 h, read-out: Antiproliferative activity in cancerous cells, SW480 (inhibition of cell growth); for inhibition at 3.3 µM: Compound concentration: 3.3 μM; for inhibition at 10 µM: Compound concentration: 10 μM. Put shortly: as §1
Assay [4] relates to B16F10 (malignant melanoma). The assay can be described thus: Antiproliferative activity (CCK-8 cell viability), B16F10. The note with it: Mus musculus, 72 h, read-out: Antiproliferative activity in cancerous cells, B16F10 (inhibition of cell growth); for inhibition at 3.3 µM: B16-F10, Compound concentration: 3.3 μM; for inhibition at 10 µM: B16-F10, Compound concentration: 10 μM. Put shortly: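 B16F10 melanoma cells grown in DMEM with 10% FBS were plated in 96-well plates at 2,000-5,000 cells/well. After attachment they were exposed to compound in medium for 72 h at 37° C. CCK-8 solution (10 μL) was then added, and after 4 h at 37° C absorbance was read at 450 nm.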

The subject of assay [5] is A431 (epidermoid carcinoma). The assay can be described thus: Antiproliferative activity (CCK-8 cell viability), A431. The note with it: Homo sapiens, 72 h, read-out: Antiproliferative activity in cancerous cells, A431 (inhibition of cell growth); for inhibition at 3.3 µM: A-431, Compound concentration: 3.3 μM; for inhibition at 10 µM: A-431, Compound concentration: 10 μM. The essentials:
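A431 epidermoid carcinoma cells grown in DMEM with 10% FBS were plated at 2,000-5,000 cells/well in 96-well plates. After attachment they were exposed to compound at 3.3 μM, 10 μM, or 30 μM for 72 h at 37° C. Viability was then assessed by CCK-8 against DMSO vehicle-treated wells.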

The subject of assay [6] is A549 (lung adenocarcinoma). The assay can be described thus: Antiproliferative activity (CCK-8 cell viability), A549. The note with it: Homo sapiens, 72 h, read-out: Antiproliferative activity in cancerous cells, A549 (inhibition of cell growth); for inhibition at 3.3 µM: Compound concentration: 3.3 μM; for inhibition at 10 µM: Compound concentration: 10 μM. The essentials:
as §1

The subject of assay [7] is HeLa (cervical cancer). The assay can be described thus: Antiproliferative activity (CCK-8 cell viability), HeLa. Particulars: Homo sapiens, 72 h, read-out: Antiproliferative activity in cancerous cells, HELA (inhibition of cell growth); for inhibition at 3.3 µM: Compound concentration: 3.3 μM; for inhibition at 10 µM: Compound concentration: 10 μM. Put shortly:
as §1

For the compound `CCc1ccc2c(c1)C(CC(=O)O)=C(C)/C2=C/c1cccc(Oc2ccc(C(F)(F)F)cc2)c1` [C106, (Z)-2-(5-Ethyl-2-methyl-1-(3-(4-(trifluoromethyl)phenoxy)benzylidene)-1H-inden-3-yl)acetic acid], the inhibition at 3.3 µM is at least 50% in assay [1]; at least 50% in assay [2]; at least 50% in assay [3]; at least 50% in assay [4]; 30 to 50% in assay [5]; at least 50% in assay [6]. The inhibition at 3.3 µM in assay [7] was at least 50%. The inhibition at 10 µM in assay [1], in assay [2], in assay [3], in assay [4], in assay [5] and in assay [6] was at least 50% each time. The inhibition at 10 µM in assay [7] was at least 50%.
Turning to `CC1=C(CC(=O)O)c2cc(F)ccc2/C1=C\c1ccc(COCc2ccc(C)cc2)cc1` [B102, (Z)-2-(5-Fluoro-2-methyl-1-(4-(((4-methylbenzyl)oxy)methyl)benzylidene)-1H-inden-3-yl)acetic acid], the inhibition at 3.3 µM in assay [1] was 30 to 50%; in assay [2], 30 to 50%; in assay [3], under 30%; in assay [4], under 30%; in assay [5], at least 50%; in assay [6], under 30%. Moreover, the inhibition at 3.3 µM in assay [7] is under 30%. Moreover, the inhibition at 10 µM in assay [1], in assay [2], in assay [3], in assay [4], in assay [5] and in assay [6] was at least 50% each time. Besides, the inhibition at 10 µM in assay [7] was at least 50%.
In the case of `CC1=C(CC(=O)O)c2cc(Br)ccc2/C1=C\c1cccc(Oc2ccccc2)c1` [C110, (Z)-2-(5-Bromo-2-methyl-1-(3-phenoxybenzylidene)-1H-inden-3-yl)acetic acid], the inhibition at 3.3 µM is under 30% in assay [1]; under 30% in assay [2]; under 30% in assay [3]; at least 50% in assay [4]; under 30% in assay [5]; under 30% in assay [6]. In addition, the inhibition at 3.3 µM in assay [7] is under 30%. For the same compound, the inhibition at 10 µM in assay [1] was at least 50%; in assay [2], at least 50%; in assay [3], 30 to 50%; in assay [4] it was at least 50%; in assay [5], at least 50%; in assay [6], at least 50%. Moreover, the inhibition at 10 µM in assay [7] is at least 50%.
On to `CC1=C(CC(=O)O)c2cc(F)ccc2/C1=C\c1ccc(C(=O)c2ccccc2)cc1` [C307, (Z)-2-(1-(4-Benzoylbenzylidene)-5-fluoro-2-methyl-1H-inden-3-yl)acetic acid], for which the inhibition at 3.3 µM in assay [1] is 30 to 50%; in assay [2], 30 to 50%; in assay [3], under 30%; in assay [4] it was under 30%; in assay [5] it was 30 to 50%; in assay [6] it was under 30%. Further, the inhibition at 3.3 µM in assay [7] is under 30%. The inhibition at 10 µM in assay [1], in assay [2], in assay [3], in assay [4], in assay [5] and in assay [6] was at least 50% each time. Also, the inhibition at 10 µM in assay [7] is at least 50%.
As to `CC1=C(CC(=O)O)c2c(Cl)cc(Cl)cc2/C1=C\c1ccc(Oc2ccc(F)cc2)cc1` [C87, (Z)-2-(4,6-Dichloro-1-(4-(4-fluorophenoxy)benzylidene)-2-methyl-1H-inden-3-yl)acetic acid], the inhibition at 3.3 µM is at least 50% in assay [1]; under 30% in assay [2]; under 30% in assay [3]; at least 50% in assay [4]; at least 50% in assay [5]; under 30% in assay [6]. The inhibition at 3.3 µM in assay [7] was under 30%. Moreover, the inhibition at 10 µM in assay [1], in assay [2], in assay [3], in assay [4], in assay [5] and in assay [6] was at least 50% in each case. Also, the inhibition at 10 µM in assay [7] is at least 50%.
Consider `CC1=C(CC(=O)O)c2cc(Cl)ccc2/C1=C\c1ccc(COCc2ccc(Cl)cc2)cc1` [B115, (Z)-2-(5-Chloro-1-(4-(((4-chlorobenzyl)oxy)methyl)benzylidene)-2-methyl-1H-inden-3-yl)acetic acid], for which the inhibition at 3.3 µM in assay [1] was under 30%; in assay [2] it was at least 50%; in assay [3], under 30%; in assay [4], 30 to 50%; in assay [5] it was at least 50%; in assay [6] it was 30 to 50%. Also, the inhibition at 3.3 µM in assay [7] is under 30%. For the same compound, the inhibition at 10 µM in assay [1] was under 30%; in assay [2], at least 50%; in assay [3], at least 50%; in assay [4], at least 50%; in assay [5], at least 50%; in assay [6], at least 50%. Moreover, the inhibition at 10 µM in assay [7] is at least 50%.
Take `CC1=C(CC(=O)O)c2cc(I)ccc2/C1=C\c1ccc(COCc2ccc(F)cc2)cc1` [B109, (Z)-2-(1-(4-(((4-Fluorobenzyl)oxy)methyl)benzylidene)-5-iodo-2-methyl-1H-inden-3-yl)acetic acid]: the inhibition at 3.3 µM was at least 50% in assay [1]; under 30% in assay [2]; under 30% in assay [3]; under 30% in assay [4]; under 30% in assay [5]; 30 to 50% in assay [6]. Besides, the inhibition at 3.3 µM in assay [7] was at least 50%. For the same compound, the inhibition at 10 µM in assay [1], in assay [2], in assay [3], in assay [4], in assay [5] and in assay [6] was at least 50% each time. Moreover, the inhibition at 10 µM in assay [7] is at least 50%.
Turning to `CC1=C(CC(=O)O)c2cc(F)ccc2/C1=C\c1cccc(Oc2ccc(I)cc2)c1` [C100, (Z)-2-(5-Fluoro-1-(3-(4-iodophenoxy)benzylidene)-2-methyl-1H-inden-3-yl)acetic acid], the inhibition at 3.3 µM in assay [1], in assay [2], in assay [3], in assay [4], in assay [5] and in assay [6] was under 30% throughout. Moreover, the inhibition at 3.3 µM in assay [7] is under 30%. For the same compound, the inhibition at 10 µM in assay [1] is under 30%; in assay [2], at least 50%; in assay [3], under 30%; in assay [4], 30 to 50%; in assay [5], under 30%; in assay [6], 30 to 50%. Further, in assay [7], the inhibition at 10 µM is at least 50%.
